Data as given in publication PMC11594246, “Nitrilase GiNIT from Gibberella intermedia Efficiently Degrades Nitriles Derived from Rapeseed Meal Glucosinolate” (International Journal of Molecular Sciences, 2024).

Columns and labels:
[1] = target: T1, rRrNIT (Rhodococcus rhodochrous, UniProt Q02068); experiment: specific activity, Bertholet ammonia assay; assay type: biochemical; details: 50 mM substrate, pH 7.5, 45 °C
T1 construct: synthetic gene expressed in E. coli BL21(DE3), purified
T1 sequence (Q02068 1-383): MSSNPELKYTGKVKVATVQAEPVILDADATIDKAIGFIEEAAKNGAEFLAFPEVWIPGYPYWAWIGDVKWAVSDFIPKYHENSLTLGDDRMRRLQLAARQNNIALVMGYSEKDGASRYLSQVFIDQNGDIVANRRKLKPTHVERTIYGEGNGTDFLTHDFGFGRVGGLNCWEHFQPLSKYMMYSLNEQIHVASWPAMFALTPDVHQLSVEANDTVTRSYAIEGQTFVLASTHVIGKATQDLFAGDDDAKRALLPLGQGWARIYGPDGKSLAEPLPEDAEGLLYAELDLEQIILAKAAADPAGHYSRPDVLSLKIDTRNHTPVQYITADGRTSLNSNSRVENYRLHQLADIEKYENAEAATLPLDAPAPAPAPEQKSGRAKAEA

[2] = target: T2, rBdNIT (Bradyrhizobium diazoefficiens, UniProt Q89PT3); experiment: specific activity, Bertholet ammonia assay; assay type: biochemical; details: 50 mM substrate, pH 7.5, 45 °C
T2 construct: gene blr3397; synthetic gene expressed in E. coli BL21(DE3), purified
T2 sequence (Q89PT3 1-321): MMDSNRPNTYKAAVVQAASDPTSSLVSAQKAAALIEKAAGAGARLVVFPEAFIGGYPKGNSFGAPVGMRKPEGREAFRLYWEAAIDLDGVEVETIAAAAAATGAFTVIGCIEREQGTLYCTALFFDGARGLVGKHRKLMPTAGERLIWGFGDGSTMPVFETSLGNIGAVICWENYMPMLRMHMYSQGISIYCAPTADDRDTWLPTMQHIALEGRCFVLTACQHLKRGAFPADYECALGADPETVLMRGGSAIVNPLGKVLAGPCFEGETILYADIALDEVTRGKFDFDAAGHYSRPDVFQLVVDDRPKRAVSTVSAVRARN

| SMILES | specific activity, Bertholet ammonia assay [1] | specific activity, Bertholet ammonia assay [2] |
| --- | --- | --- |
| C=CCCC#N [4-pentenenitrile] | rRrNIT from Rhodococcus rhodochrous | rBdNIT from Bradyrhizobium diazoefficiens |
| C=CCC#N [3-butenenitrile] | rRrNIT from Rhodococcus rhodochrous | rBdNIT from Bradyrhizobium diazoefficiens |
